Structures are written as SMILES.

The text below walks through data of patent publication US20250161281A1, “EMOPAMIL-BINDING PROTEIN INHIBITORS AND USES THEREOF” (BIOGEN MA INC., priority 2022, published 2025).

T1 sequence (Q15125 whole entry): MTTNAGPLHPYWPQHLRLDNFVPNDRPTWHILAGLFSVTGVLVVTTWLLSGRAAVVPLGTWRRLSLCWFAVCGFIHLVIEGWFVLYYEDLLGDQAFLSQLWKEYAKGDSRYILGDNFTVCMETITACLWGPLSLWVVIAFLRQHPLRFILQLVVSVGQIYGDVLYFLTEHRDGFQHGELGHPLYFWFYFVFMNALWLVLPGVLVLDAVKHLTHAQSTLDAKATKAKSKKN

The assay has as its target T1, EBP (Homo sapiens, UniProt Q15125).
T1 construct: HEK293T cells were utilized as the source of EBP enzyme; endogenous in cells; host or cells: HEK293T
The assay is described as follows: EBP Functional Assay (EBP immunoaffinity LC-MS assay). The format is biochemical. The note with it: HEK293T cells as source of EBP enzyme; 30 min with inhibitor, then zymosterol-d5, 37° C. for 4 h; percent conversion by LC-APCI MRM MS. In short, it runs like this: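 HEK293T cells as EBP source, preincubated with inhibitor 30 min, then zymosterol-d5 added for 4 h at 37° C. Sterols extracted and quantified by LC-APCI MRM MS. IC50 from percent conversion of zymosterol-d5 to product, fitted with a 4-parameter logistic model; Tasin-1 as reference.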
The compound `O=S(=O)(c1ccc(OC(F)F)cc1)N1C2CCC1CC(N[C@@H]1CCOC1)C2` (stereo partly drawn) [Example 70, 8-((4-(Difluoromethoxy)phenyl)sulfonyl)-N—((R)-tetrahydrofuran-3-yl)-8-azabicyclo[3.2.1]octan-3-amine] yielded an IC50 of 0.05 to 0.15 µM.

With `O=S(=O)(c1ccc(OC(F)F)cc1)N1[C@@H]2CC[C@H]1C[C@@H](NCC1COC1)C2` [Example 72, (1R,3r,5S)-8-((4-(Difluoromethoxy)phenyl)sulfonyl)-N-(oxetan-3-ylmethyl)-8-azabicyclo[3.2.1]octan-3-amine], the IC50 is less than 0.05 µM. In turn, `O=S(=O)(c1ccc(OC(F)F)cc1)N1C2CCC1CC(NC1CCOCC1)C2` (stereo not shown) [Example 73, 8-((4-(Difluoromethoxy)phenyl)sulfonyl)-N-(tetrahydro-2H-pyran-4-yl)-8-azabicyclo[3.2.1]octan-3-amine] registered an IC50 of less than 0.05 µM. `O=S(=O)(c1ccc(OC(F)F)cc1)N1C2CCC1CC(NC1COC1)C2` (stereo not shown) [Example 74, 8-((4-(Difluoromethoxy)phenyl)sulfonyl)-N-(oxetan-3-yl)-8-azabicyclo[3.2.1]octan-3-amine] showed an IC50 greater than 2 µM. In the case of `Cc1nc(C(F)(F)F)ccc1S(=O)(=O)N1[C@@H]2CC[C@H]1C[C@H](NC1CCOCC1)C2` [Example 75, (1R,3s,5S)-8-((2-Methyl-6-(trifluoromethyl)pyridin-3-yl)sulfonyl)-N-(tetrahydro-2H-pyran-4-yl)-8-azabicyclo[3.2.1]octan-3-amine], the IC50 fell in the range of 0.15 to 2 µM. The result for `CC(C)(O)CN[C@@H]1C[C@H]2CC[C@@H](C1)N2S(=O)(=O)c1ccc(OC(F)F)cc1` [Example 76, 1-(((1R,3s,5S)-8-((4-(Difluoromethoxy)phenyl)sulfonyl)-8-azabicyclo[3.2.1]octan-3-yl)amino)-2-methylpropan-2-ol] reads 0.15 to 2 µM; that for `CC(C)(O)CN[C@H]1C[C@H]2CC[C@@H](C1)N2S(=O)(=O)c1ccc(OC(F)F)cc1` [Example 77, 1-(((1R,3r,5S)-8-((4-(Difluoromethoxy)phenyl)sulfonyl)-8-azabicyclo[3.2.1]octan-3-yl)amino)-2-methylpropan-2-ol], 0.05 to 0.15 µM.
